Here are results for two molecules from patent publication US7897846B2, “Maize event DP-098140-6 and compositions and methods for the identification and/or detection thereof” (Pioneer Hi-Bred Int'l, Inc., priority 2006, dated 2011).

Series [1] has as its system near isoline control maize. Nature of the series: Greenhouse herbicide tolerance, visual herbicide injury rating, two generations. Format: in vivo, Zea mays. The following applies: for Average Herbicide Injury Rating: Control maize, 0-100 scale, applied at V4. The procedure:
(§1) The objective of this study was to evaluate the herbicide tolerance and protein expression in maize containing the event DP-098140-6.
(§2) Plants were grown in a greenhouse using a randomized complete block design containing four blocks. Each block consisted of twenty-four flats. Flats representing entries 1-12 (segregating 1:1) contained approximately fifteen plants per entry, while flats representing entries 13-24 (non-segregating) contained approximately ten plants per entry. Trait confirmation for GLYAT4621 was conducted for test and control entries at the V2 growth stage using lateral flow strip tests specific for the GLYAT protein. Plants with positive trait confirmation results (expressing GLYAT4621) were used for test entries and plants with negative trait confirmation results (not expressing GLYAT4621) were used as the control entries. Any remaining negative segregants not used for controls were then removed and remaining positive plants were thinned to 5 plants per entry within each block (treatment). At the V4 growth stage, a herbicide treatment containing glyphosate (1.46 L/ha or 20 oz/acre)+nonionic surfactant (0.25% vol./vol.)+ammonium sulfate (3.4 kg/ha) was applied to entries 1, 9, 13, and 21; herbicides containing thifensulfuron (3.5 g/ha or 0.5 oz/acre) and tribenuron (3.5 g/ha or 0.5 oz/acre) each containing nonionic surfactant (0.25% vol./vol.)+ammonium sulfate (3.4 kg/ha) were applied to entries 2, 10, 14 and 22; and a tank mixture of herbicides containing glyphosate, thifensulfuron and tribenuron was applied to entries 3, 11, 15, and 23 (Table 15).
(§3) Herbicide injury was evaluated visually at 14 and 21 days after herbicide application by estimating herbicide injury percentage, where “0” represented no visible injury and “100” represented complete plant death. The injury rating took into account all symptoms of herbicide injury when compared to the untreated entry for the same maize line. Injury symptoms included discoloration, leaf speckling, and wilting. The untreated entries for each maize line were rated as 0% injury and the herbicide treated entries of the same maize line were rated by comparing them to this untreated entry. Photographs were taken at 21 days following herbicide application to record herbicide injury. In order to further characterize tolerance to ALS-inhibiting herbicides, a characteristic of the zm-hra gene in DP-098140-6 maize, plant heights were measured for all entries at 14 and 21 days post herbicide treatment. Plant height was measured in cm from the soil surface to the tip of the highest leaf when extended by hand.
(§4) Means, standard error and P-values were calculated for plant height data. Means were calculated for herbicide injury scores. Means, ranges and standard deviations of protein expression data were calculated for each protein expressed in leaf and seed tissues.

Series [2] relates to DP-098140-6 maize. The series is described as above. Format: in vivo, Zea mays. Conditions: applied at V4. The protocol:
as §1, §2, §3, §4

In series [3] the test system is near isoline control maize. Format: in vivo, Zea mays. The procedure: as §2, §3, §4
Series [4] concerns DP-098140-6 maize. The class given is in vivo, Zea mays. The following applies: 98140 maize. The procedure: as §2, §3, §4
Series [5] in a line: GLYAT4621 sandwich ELISA, leaf tissue at V5 stage (pg/μg total extractable protein). The arrangement: species or system Zea mays. The following applies: DP-098140-6 maize leaf tissue, V5 growth stage, greenhouse; 20 plants. The protocol: Expression of the GLYAT4621 and Zm-HRA proteins has been evaluated on the leaf tissue collected at the V5 stage of growth from plants cultivated in greenhouses. For each sample, four fresh leaf punches were collected and ground in sample extraction buffer using a GenoGrinder (Spex Certiprep). Total Extractable Protein (TEP) was determined using the Bio-Rad Protein assay, which is based on the Bradford dye-binding procedure. Sample extracts were diluted in sample extraction buffer for ELISA analysis.
The GLYAT4621 and ZM-HRA ELISA's utilize a “sandwich” format for the quantification of the specific target protein in plant tissue extracts. […] The reaction is stopped with Sulfuric acid and the optical density of each well is determined using a Molecular Devices plate reader with a wavelength setting of 450 nm-650 nm. […] The mean concentration from the duplicate wells is expressed as pg target protein/μg of total extractable protein (TEP). The sample lower limit of quantification (LLOQ) was 10 pg GLYAT4621 protein/μg TEP and the upper detection limit was 2000 pg GLYAT4621 protein/μg TEP. The sample lower limit of quantification was 20 pg ZM-HRA protein/μg TEP and the upper detection limit was 5000 pg ZM-HRA protein/μg TEP.

Where two headings read alike, the source gives them in different places.

With `O=C(O)CNCP(=O)(O)O` [Glyphosate, glyphosate], the “Average Herbicide Injury Rating” value is on record as 100 in series [1] (Generation 1, 14 days post-treatment); 100 in series [1] (Generation 1, 21 days post-treatment); 100 in series [1] (Generation 2, 14 days post-treatment); 100 in series [1] (Generation 2, 21 days post-treatment); 0 with DP-098140-6 maize [2] (Generation 1, 14 days post-treatment, 0 = no visible injury, 100 = complete plant death); 0 with DP-098140-6 maize [2] (Generation 1, 21 days post-treatment, 0-100 scale). Besides, the “Average Herbicide Injury Rating” value is recorded as 0 in the series on DP-098140-6 maize [2] (Generation 2, 14 days post-treatment, 0-100 scale) and 0 in the series on DP-098140-6 maize [2] (Generation 2, 21 days post-treatment, 0-100 scale). Moreover, the injury in series [1] (sprayed control maize, both generations) is given as 100%. The “Plant height, Least Square Means” value was 0.00 cm in series [3] (Generation 1, 14 days following treatment, 0 cm = visible plant that has died due to herbicide treatment); 0.00 cm in series [3] (Generation 1, 21 days following treatment, 0 cm = visible plant that has died due to herbicide treatment); 0.00 cm in series [3] (Generation 2, 14 days following treatment, 0 cm = plant died due to herbicide); 0.00 cm in series [3] (Generation 2, 21 days following treatment, 0 cm = plant died due to herbicide); 103 cm with DP-098140-6 maize [4] (Generation 1, 14 days following treatment); 120 cm in the series with DP-098140-6 maize [4] (Generation 1, 21 days following treatment). Besides, the “Plant height, Least Square Means” value in the series on DP-098140-6 maize [4] (Generation 2, 14 days following treatment) is recorded as 101 cm; with DP-098140-6 maize [4] (Generation 2, 21 days following treatment), 115 cm.

B1: GLYAT4621: glyphosate acetyltransferase protein encoded by the glyat4621 gene, expressed in DP-098140-6 maize (protein)
chain: MAIEVKPINAEDTYDLRHRVLRPNQPIEACMFESDLTRSAFHLGGFYGGKLISVASFHQAEHSELQGKKQYQLRGVATLEGYREQKAGSSLVKHAEEILRKRGADMIWCNARTSASGYYRKLGFSEQGEVFDTPPVGPHILMYKR
modifications: GAT4621 probe
notes: glyphosate acetyltransferase protein encoded by the glyat4621 gene, expressed in DP-098140-6 maize
B1: the “Expression level of GLYAT4621 protein, Mean” value in series [5] was found to be 571.7 pg/μg TEP.
